Target: T1, androgen receptor (Rattus norvegicus, UniProt P15207)
T1 construct: on receptors in cystosol from animal target organs; from tissue; host or cells: prostate cytosol of castrated rat
T1 sequence (P15207 1-902): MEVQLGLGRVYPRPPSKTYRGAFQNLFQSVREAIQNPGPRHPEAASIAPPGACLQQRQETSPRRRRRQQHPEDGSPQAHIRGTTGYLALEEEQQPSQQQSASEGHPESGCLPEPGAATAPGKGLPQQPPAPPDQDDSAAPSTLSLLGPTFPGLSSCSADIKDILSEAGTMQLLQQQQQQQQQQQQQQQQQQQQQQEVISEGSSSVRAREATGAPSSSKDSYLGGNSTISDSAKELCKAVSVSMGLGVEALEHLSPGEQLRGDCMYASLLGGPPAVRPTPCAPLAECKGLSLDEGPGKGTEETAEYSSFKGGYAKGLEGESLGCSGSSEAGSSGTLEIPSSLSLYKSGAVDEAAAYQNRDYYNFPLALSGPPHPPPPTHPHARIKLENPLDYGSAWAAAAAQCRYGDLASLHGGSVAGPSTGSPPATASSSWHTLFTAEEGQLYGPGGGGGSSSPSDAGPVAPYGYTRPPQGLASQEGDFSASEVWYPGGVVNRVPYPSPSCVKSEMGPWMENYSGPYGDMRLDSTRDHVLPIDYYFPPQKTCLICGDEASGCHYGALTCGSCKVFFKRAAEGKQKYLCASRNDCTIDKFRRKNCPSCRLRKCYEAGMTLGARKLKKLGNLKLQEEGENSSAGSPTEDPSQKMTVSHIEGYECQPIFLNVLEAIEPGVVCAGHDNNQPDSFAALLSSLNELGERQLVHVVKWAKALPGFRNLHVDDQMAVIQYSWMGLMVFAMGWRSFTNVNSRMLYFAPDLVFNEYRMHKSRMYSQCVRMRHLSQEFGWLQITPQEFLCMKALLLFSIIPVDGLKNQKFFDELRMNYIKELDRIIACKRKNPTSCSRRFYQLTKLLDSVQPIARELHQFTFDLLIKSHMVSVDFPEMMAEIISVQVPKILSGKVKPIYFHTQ
Test: Measurement of the androgen receptor binding affinity (competitive binding with 3H-Metribolone tracer in prostate cytosol)
Settings: prostate cytosol of the castrated rat; tracer 3H-Metribolone; reference substance DHT = 100%; 0-4° C., 18 hours
Description: Measurement of the androgen receptor binding affinity:
The receptor binding affinity was determined by competitive binding of a specifically binding 3H-labeled hormone (tracer) and the compound to be tested on receptors in cystosol from animal target organs. In this case, receptor saturation and reaction equilibrium were desired.
The tracer and increasing concentrations of the compound to be tested (competitor) were co-incubated at 0-4° C. over 18 hours with the receptor-containing cytosol fraction. After separation of the unbonded tracer with carbon-dextran suspension, the receptor-bonded tracer portion was measured for each concentration and the IC50 was determined from the concentration series.
The following incubation conditions were selected:
Prostate cytosol of the castrated rat; prostates stored at −30° C.;

| SMILES | RBA % (relative molar binding affinity) [%] |
| --- | --- |
| CC1CC2=CC(=O)CCC2(C)C2CCC3(C)C(O)C(Cl)=CCC3C12 (stereo not drawn) [Compound 2, 17-Chloro-17aβ-hydroxy-7α-methyl-17a-homoandrosta-4,16-dien-3-one] | 46 |
| C[C@]12CC[C@H]3[C@@H](CCC4=C(C(F)(F)F)C(=O)CC[C@@]43C)[C@@H]1CC=C(Cl)[C@@H]2O [Compound 9, 17-Chloro-17aβ-hydroxy-4-trifluoromethyl-17a-homoandrosta-4,16-dien-3-one] | 51 |
| C[C@]12CC[C@H]3[C@@H](CCC4=CC(=O)CC[C@@H]43)[C@@H]1CC=C(Cl)[C@@H]2O [Compound 17, 17-Chloro-17aβ-hydroxy-17a-homo-estra-4,16-dien-3-one] | 80 |
| CC1CC2=CC(=O)CCC2C2CCC3(C)C(O)C(Cl)=CCC3C12 (stereo not drawn) [Compound 18, 17-Chloro-17aβ-hydroxy-7α-methyl-17a-homo-estra-4,16-dien-3-one] | 105 |
| CC12CCC3C4CCC(=O)C(O)=C4CCC3C1CC=C(Cl)C2O (centres unmarked) [Compound 21, 17-Chloro-4,17aβ-dihydroxy-17a-homo-estra-4,16-dien-3-one] | 70 |
